{"source": "patent US12453700B2", "about": "“Nano-particles of menaquinone-9 and methods of treatment” (Epizon, Inc., priority 2024, dated 2025)", "assay": "Dissolution testing of MK-9 API and nanosuspension in Fed State Simulated Intestinal Fluid (FeSSIF)", "type": "physicochemical", "details": "for % Dissolution (Avg of n = 3): FeSSIF pH 5, 37° C., 0.01 mg/mL drug load", "method": "MK-9 (menaquinone-9, API) is suspended in an aqueous vehicle containing wetting agent sodium deoxycholate. The API concentration is 4% and the wetting agent concentration was 0.4% w/w. The API particles are milled to a particle size of 155 nm using zirconium milling beads and high shear Beadbeater mixing. The dissolution of the nanosuspension is tested at a concentration of 0.01 mg/mL, in triplicate, in pH 5 Fed State Simulated Intestinal Fluid (FeSSIF).\n2. Fill three (3) vessels with 500 mL of FeSSIF media and heat to 37° C.\n3. Set up the following dissolution conditions:\n4. Vortex suspension x for approximately one minute so that it is uniform. Weigh three (3) aliquots of 0.15 g of the 4% nanosuspension into a tared syringe to give a target 100% dissolution concentration of 0.01 mg/mL. Record weight.\n5. Add weighed suspension directly to each vessel.\n7. After five minutes, manually pull up 3 mL from each dissolution vessel in a syringe.\n8. Attach a 0.2 μm filter to the syringe.\n9. Transfer 2 mL of the dissolution sample back into the vessel.\n10. Transfer the final 1 mL of sample to an amber HPLC vial and crimp seal.\n12. After the 60-minute time-point, mix each vessel for 5 minutes with a high shear mixer.\n13. Repeat Step #8-11 and label this sample as ‘infinity’.\n14. Run samples on HPLC 10 minutes HPLC method with replicate HPLC standard solutions.\nMK-9 (menaquinone-9, API) is suspended in an aqueous vehicle containing wetting agent, sodium deoxycholate. The API concentration is 4% and the wetting agent concentration was 0.4% w/w. The API particles are milled to a particle size of 155 nm by use of zirconium milling beads and high shear Beadbeater mixing. The dissolution of the nanosuspension is tested at a concentration of 0.01 mg/mL, in triplicate, in pH 5 FeSSIF. […] The nano-milling process is scaled up and the suspended nano-particles are removed from the suspension vehicle, dry and formulate into a fast dissolving tablet, and tested.", "data": [{"compound": "CC(C)=CCC/C(C)=C/CC/C(C)=C/CC/C(C)=C/CC/C(C)=C/CC/C(C)=C/CC/C(C)=C/CC/C(C)=C/CC/C(C)=C/CC1=C(C)C(=O)c2ccccc2C1=O", "note": "[API, menaquinone-9]", "values": [{"measurement": "% Dissolution (Avg of n = 3)", "setting": "timepoint 0 minute", "value": 0, "unit": "%"}, {"measurement": "% Dissolution (Avg of n = 3)", "setting": "timepoint 10 minute", "value": 96, "unit": "%"}, {"measurement": "% Dissolution (Avg of n = 3)", "setting": "timepoint 10 minute, listed as MK-9 API", "value": "about 20%"}, {"measurement": "% Dissolution (Avg of n = 3)", "setting": "timepoint 15 minute", "value": 97, "unit": "%"}, {"measurement": "% Dissolution (Avg of n = 3)", "setting": "timepoint 30 minute", "value": 97, "unit": "%"}, {"measurement": "% Dissolution (Avg of n = 3)", "setting": "timepoint 45 minute", "value": 98, "unit": "%"}, {"measurement": "% Dissolution (Avg of n = 3)", "setting": "timepoint 60 minute", "value": 96, "unit": "%"}, {"measurement": "% Dissolution (Avg of n = 3)", "setting": "timepoint Infinity (after 5 minutes high shear mixing)", "value": 97, "unit": "%"}, {"measurement": "% Dissolution (dissolution profile)", "setting": "FeSSIF, at about 120 mins", "value": "about 20%"}]}]}
